Inhibition and EC50 data for seven molecules are collected here from ChEMBL document CHEMBL3124883, “Halting HCV Replication with NS5A Inhibitors and NS5B Polymerase Inhibitors: Effective New Treatments of HCV Infection” (ACS Med Chem Lett, 2014).

Activity calls are given as the source filed them. The calls are words filed in the database; no cut-off is given here.

What is called EC50 is the concentration giving half of the maximal effect.

For one assay, the system named is Hepatitis C virus. Briefly: Antiviral activity against HCV infected in human HuH7 cells assessed as inhibition of RNA replication after 72 hrs by luciferase reporter gene assay. The format is functional, organism-based. The settings on record: Hepacivirus hominis; Huh-7.
In the case of `Cn1c(-c2cnccn2)c(C2CCCC2)c2ccc(C(=O)NC3(c4nc5ccc(/C=C/C(=O)O)cc5n4C4CCC4)CCCC3)cc21`, the inhibition result is “Active”.
Consider `Cc1c(-c2ccccn2)n(C2CCCC2)c2ccc(C(=O)NC3(c4nc5cc(/C=C/C(=O)O)ccc5n4C)CCC3)cc12`, for which the inhibition entry was “Active”.
As for `C/C(=C\c1ccc2nc(C3(NC(=O)c4ccc5c(C6CCCC6)c(-c6cccc7cc(C)[nH]c67)n(C)c5c4)CCC3)n(C)c2c1)C(=O)O`, the inhibition entry was “Active”.
As to `Cn1c(C2(NC(=O)c3ccc4c(C5CCCC5)c(-c5ccccn5)n(C)c4c3)CCC2)nc2cc(/C=C/C(=O)O)ccc21`, the inhibition entry is “Active”.

For another assay, the system named is Hepatitis C virus. The assay can be described thus: Antiviral activity against HCV genotype 1b infected in human HuH7 cells assessed as total cellular RNA after 5 days by RT-PCR analysis. The note with it: Huh-7, 120 h. The format is functional, organism-based, Hepacivirus hominis.
For the molecule `C#Cc1ccc(-c2cn(-c3ccc(-c4cnc(-c5cnc([C@@H]6CCCN6C(=O)[C@@H](NC(=O)OC)C(C)C)[nH]5)[nH]4)cc3)nn2)cc1`, the 50% effective concentration (EC50) amounted to 1 nM.
For the molecule `COC(=O)N[C@@H](CC(C)C)C(=O)N1CCC[C@H]1c1ncc(-c2ccc(-c3ccccc3)cc2)[nH]1`, the EC50 came out at 100 nM.
For the molecule `COC(=O)N[C@H](C(=O)N1C[C@@H](SC)C[C@H]1c1ncc(-c2ccc(-c3ccc(-c4cnc([C@@H]5C[C@H](SC)CN5C(=O)[C@@H](NC(=O)OC)c5ccccc5)[nH]4)cc3)cc2)[nH]1)c1ccccc1`, the EC50 is less than 1 nM.
